Data from patent US20220347167A1, “A NEW TREATMENT FOR MEIBOMIAN GLAND DYSFUNCTION” (The Schepens Eye Research Institute, Inc., priority 2019, published 2022).

Tests used:
DNase II = DNase II activity by single radial enzyme diffusion assay (SREDA) in IHMGECs; assay type: cell-based, human
Experimental: (§1) After being treated with 21% O2, 1% O2, 10 μM Roxa or a combination for 10 days, cell numbers were counted with a hemocytometer and the cell lysates and cell culture supernatants were collected, as previously described in Liu et al. (2019) The ocular surface 17(2):310-317. DNase II activity in fresh samples was analyzed by SREDA in agarose gels according to published protocols in Liu et al. (2019) The ocular surface 17(2):310-317 and Oka et al. (2012) Nature 485:251-255. Cell lysates and culture media were used to measure the DNase II activity inside and outside of the cells, respectively [Liu et al. (2019) The ocular surface 17(2):310-317]. After incubation for 3-24 hours at 37° C., the area of the dark circle in the gel was measured under an UV trans-illuminator at 312 nm. For comparison between conditions, values were normalized to cell number.
(§2) Low O2 increases DNase II activity and promotes cell terminal differentiation of IHMGECs (Liu et al. Ocul Surf 2019; 17:310-317). To determine whether Roxa treatment can reproduce this hypoxic effect, IHMGECs were treated with Roxa in both normoxic and 1% O2 conditions for 10 days, prior to counting cell numbers and analyzing DNase II activity in cell lysates and supernatants.

IHMGECs = test: Cell number of IHMGECs (hemocytometer); assay type: cell-based, human
Experimental: as §1, §2

MG cells = test: Staining of dissected mouse eyelids for MG cell differentiation markers; assay type: in vivo; details: eyelids of Roxa-treated ApoE −/− mice
Excerpt: The mice eyelids were collected and dissected after sacrificing. The dissected samples were stained with different antibodies and dyes for lipids. For example, the dissected mice lid samples were stained with Oil Red O and LipidTox™ (Invitrogen) for evaluation of lipid accumulation. The sections were stained for pimonidazole, DNase II, HIF1α, PPARγ, Desmoglein and Desmocollin for the evaluation of cell differentiation and maturation. […] These markers include intracellular lipid accumulation, as well as expression of peroxisome proliferator-activated receptor gamma (PPAR-γ), Desmoglein and Desmocollin in MG cells.

HIF1α = HIF1α expression in IHMGECs by western blot; assay type: cell-based, human; parameters: HIF1α accumulation in IHMGECs, combination of Roxa and low O2: dose or concentration left out as unconfirmed
Experimental: Authenticated IHMGECs were grown and passaged in keratinocyte serum-free medium (KSFM) with 5 ng/mL epidermal growth factor (EGF) and 50 μg/mL bovine pituitary extract (BPE) (Thermo Fisher Scientific, Waltham, Mass.) under 21% O2 (normoxia) [Liu et al. (2010) Investigative ophthalmology & visual science 51:3993-4005; McDermott et al. (2018) Current eye research 43:1097-1101; Liu et al. (2013) Investigative ophthalmology & visual science 54:2541-2550]. Upon reaching 60% to 70% confluence, culture media were replaced by a 1:1 mixture of Dulbecco's modified Eagle's medium and Ham's F12 (DMEM/F12, Corning Life Sciences, Tewksbury, Mass.), supplemented with 10% fetal bovine serum (FBS, Atlanta Biologicals, Flowery Branch, Ga.) [Sullivan et al. (2014) Investigative ophthalmology & visual science 55:3866-3877; Liu et al. (2014) JAMA ophthalmology 132:226-228]. […] Culture plates of cells in the hypoxic condition were incubated inside hypoxia chambers filled with a premade 1% O2, 5% CO2 and 94% N2 gas mixture (Linde Gas North America, Hammond, Ind.), according to published protocols in Liu et al. (2019) The ocular surface 17(2):310-317 and Wright and Shay (2006) Nat Protoc 1:2088-2090. Following cell medium changes, the chambers were re-flushed with the gas mixture before returning to the incubator. […] Cell culture experiments (n=3 wells/treatment) were repeated at least 3 times.
[…] The cells were lysed in 2× Laemmli sample buffer (Bio-Rad Laboratories, Hercules, Calif.) and sonicated to extract nuclear protein [Andersen et al. (2002) Current biology: CB 12:1-11]. Human hepatocellular carcinoma cell lines (HepG2 cells) (America Type Culture Collection, Manassas, Va.), which express high concentration of HIF1α under CoCl2 stimulation for 4 hours [Yoo et al. (2014) Journal of cellular biochemistry 115:1147-1158], were used as a positive control for HIF1α antibody. The CoCl2 was purchased from Sigma-Aldrich Corp (St. Louis, Mo.). Cell lysates were then evaluated for HIF1α (1:1000, BD Biosciences, San Jose, Calif.) or β-actin (1:10,000, Cell Signaling Technology) expression. […]

[1] = tested on: apolipoprotein E-deficient (ApoE −/−) mice; test: Serum cholesterol in ApoE −/− mice (cholesterol fluorometric assay kit); assay type: in vivo, mouse; details: Roxa 10 mg/kg subcutaneous, three times per week for 12 weeks, vs vehicle, p<0.05
Experimental: The whole blood samples of mice were collected by cardiac puncture after sacrificing. The blood samples were allowed to clot by leaving it undisturbed at room temperature for 15 minutes. The clot was removed by centrifuging at 1,000-2,000×g for 10 minutes in a refrigerated centrifuge. The resulting supernatant was designated serum. Then the cholesterol level in the serum was evaluated by using a commercially available cholesterol fluorometric assay kit (#10007640, Cayman Chemical, Mich.). The weight of each mice was measured before and after the experiment. The percentage of weight gain was compared between the Roxa-treated mice and the vehicle-treated mice.
At the beginning of the study, the 16 ApoE−/− mice and 4 wild-type (WT) C57BL/6J mice, 12 weeks of age, were measured for their weight, tear volume, corneal fluorescein staining and tear breakup time (TBUT). The ApoE −/− mice were randomly divide into 2 groups (n=8 mice/group) and treated with vehicle control (2% DMSO in sterile saline, subcutaneous injection) or Roxa (10 mg/kg, subcutaneous injection). The injections were administrated three times per week (on Monday, Wednesday, and Friday mornings) for 12 weeks. […] At the end of the study, the weight, tear volume, corneal fluorescein staining and tear breakup time (TBUT) were measured again. […]

[2] = Roxa alone, 21% O2, 10 days, normalized to cell number

DNase II activity in IHMGEC culture supernatants (DNase II; [2]): significantly increased
DNase II activity in IHMGEC lysates (DNase II; [2]): significantly increased
magnitude of DNase II activity increase, Roxa and low O2 combination (DNase II; Roxa in 1% O2, 10 days, lysates and supernatants, vs 1% O2 alone and Roxa alone): greatest
Structure (SMILES): Cc1nc(C(=O)NCC(=O)O)c(O)c2ccc(Oc3ccccc3)cc12 [Roxa, roxadustat]
cell number of IHMGECs (IHMGECs; Roxa alone, 21% O2, 10 days): significant decreases
cell number of IHMGECs, combination of Roxa and 1% O2 (IHMGECs; Roxa in 1% O2, 10 days): significant decreases
expression of Desmocollin in MG cells (MG cells): promoted expression
expression of Desmoglein in MG cells (MG cells): promoted expression
expression of peroxisome proliferator-activated receptor gamma (PPAR-γ) in MG cells (MG cells): promoted expression
intracellular lipid accumulation in MG cells (differentiation marker) (MG cells): promoted expression
HIF1α expression in IHMGECs, Roxa compared with low O2 alone (HIF1α; 21% O2, 6 hours, vs 1% O2 alone): significantly more HIF1α expression than low O2 alone
HIF1α accumulation in IHMGECs, combination of Roxa and low O2 (HIF1α; 6 hours): greatest accumulation
HIF1α expression in IHMGECs (band intensity normalized to β-actin) (HIF1α; Roxa (10 μM elsewhere in the source), normoxic 21% O2, 6 hours, vs control): significantly increased
serum cholesterol level [1]: significantly reduced
